Laboratory results as given in PMC11093748, “De novo identification of CD4^+ T cell epitopes” (Nature Methods, 2024).

How the values were obtained:
Test in all cases: Single SABR-II co-incubation, TCR analogs
Format in all cases: cell-based, mouse
Details in all cases: Fig 4B
TCR 30 Analog 3 = test system: TCR 30 Analog 3
Text: (§1) We hypothesized that computational grouping of TCR specificities may reveal closely related TCRs that potentially recognize the same epitope(s), similar to the reverse epitope discovery approach (Fig. 4a). In the absence of experimental antigen discovery, grouping of TCRs is not informative of reactivity; however, we hypothesized that TCRs that co-clustered with SABR-II de-convoluted TCRs bind to the same antigens. To test this, we used three TCR-similarity search algorithms: GLIPH2 (refs. [38],[69]), tcrdist3 (ref. [37]) and CoNGA[39]. All three algorithms take slightly different approaches to group TCR sequences and generate clusters of TCR sequences that share high sequence similarity. In addition, CoNGA considers the transcriptional similarities among T cell clones. Using CoNGA, we defined TCR clusters for two TCRs, TCR4 and TCR6B, and identified analogs that slightly differed in sequences. Moreover, for TCR30, we were able to identify six TCR analogs that co-clustered in CoNGA analysis as well as GLIPH2. For TCR11, we first identified a gene expression (GEX) cluster that had ~50 TCRs that clustered based on gene expression. Using tcrdist3, we calculated the relative distance of each of these TCRs from TCR11 and selected the top seven clonotypes for expression. Together, 16 TCRs were identified as analogs of the experimentally de-convoluted TCRs (Extended Data Fig. 8). These TCRs were cloned and expressed in Jurkat cells. We performed co-incubation assays using single SABR-IIs and observed that 5 of 16 TCRs recognized the same epitopes as the parental TCRs (Fig. 4b). As a result, we were able to identify the cognate epitopes of five additional TCRs from our dataset that had otherwise not been selected for SABR-II screening based on our clonal expansion cutoff.
(§2) Exported clonotypes were used as inputs for GLIPH2 (ref. [69]). For CoNGA, the merged dataset was exported as a .h5ad file and used as an input along with the CellRanger vdj output file. CoNGA analysis was performed using default parameters. Pairwise relative distances among TCRs were calculated using tcrdist3 (ref. [37]). CoNGA, tcrdist3 and GLIPH2 output files were searched manually for analogs that co-cluster with experimentally de-convoluted TCRs. Analogs were synthesized and cloned as described above.
(§3) For SABR library screens, 3 × 10^6 NFAT–GFP Jurkat cells expressing the SABR library were labeled with CellTrace Violet (BioLegend) according to the manufacturer’s protocol before incubation with 3 × 10^6 Jurkat cells expressing the TCR of interest. These mixtures were incubated in a six-well plate for 16–20 h. Cells were stained with anti-CD69-APC-Cy7 where indicated (BioLegend) and the top 1–2% of GFP^+CD69^+ cells were sorted for genomic DNA extraction, indexing and sequencing (see below). Multiplexed assays were scaled on a per-TCR basis (for example 3 × 10^6 for each of three TCRs against 9 × 10^6 library cells). For single SABR assays, unless otherwise defined, 5 × 10^5 SABR expressing NFAT–GFP Jurkat cells (or 5KC cells) were labeled with CellTrace Violet (BioLegend) according to the manufacturer’s protocol before incubation with 5 × 10^5 TCR-expressing Jurkat cells (or 5KC cells) in a round-bottom 96-well plate for 16–20 h. Cells were stained with anti-CD69-APC-Cy7 when indicated and acquired on the Attune NxT flow cytometer (Thermo Fisher Scientific). All flow analysis was performed using FlowJo (BD). For Daudi cell co-culture, 1 × 10^6 Jurkat cells expressing the TCR of interest were incubated with 1 × 10^6 Daudi cells expressing a SABR of interest for 3 days. On day 3, cells were labeled with anti-RT1B-PE and anti-Fas-APC-Cy7 before being acquired on the Attune NxT flow cytometer.

TCR 11 Analog 5 = test system: TCR 11 Analog 5
Text: as §1, §2, §3

TCR 11 Analog 2 = test system: TCR 11 Analog 2
Text: as §1, §2, §3

TCR 30 Analog 1 = test system: TCR 30 Analog 1
Text: as §1, §2, §3

TCR 11 Analog 4 = test system: TCR 11 Analog 4
Text: as §1, §2, §3

TCR 11 Analog 1 = test system: TCR 11 Analog 1
Text: as §1, §2, §3

TCR 30 Analog 5 = test system: TCR 30 Analog 5
Text: as §1, §2, §3

TCR 11 Analog 6 = test system: TCR 11 Analog 6
Text: as §1, §2, §3

TCR 30 Analog 6 = test system: TCR 30 Analog 6
Text: as §1, §2, §3

TCR 30 Analog 2 = test system: TCR 30 Analog 2
Text: as §1, §2, §3

TCR 30 Analog 4 = test system: TCR 30 Analog 4
Text: as §1, §2, §3

TCR 11 Analog 3 = test system: TCR 11 Analog 3
Text: as §1, §2, §3

TCR 11 Analog 7 = test system: TCR 11 Analog 7
Text: as §1, §2, §3

TCR 4 Analog 1 = test system: TCR 4 Analog 1
Text: as §1, §2, §3

TCR 4 Analog 2 = test system: TCR 4 Analog 2
Text: as §1, §2, §3

SHLVEALYLVCGERG
%GFP+CD69+ cells of SABR-NFAT-GFP-Jurkat cells (TCR 30 Analog 3; replicate 1): 1.16%
%GFP+CD69+ cells of SABR-NFAT-GFP-Jurkat cells (TCR 30 Analog 3; replicate 2): 1.27%
%GFP+CD69+ cells of SABR-NFAT-GFP-Jurkat cells (TCR 30 Analog 3; replicate 3): 1.1%
%GFP+CD69+ cells of SABR-NFAT-GFP-Jurkat cells (TCR 11 Analog 5; technical replicate 1): 20.3%
%GFP+CD69+ cells of SABR-NFAT-GFP-Jurkat cells (TCR 11 Analog 5; technical replicate 2): 19.7%
%GFP+CD69+ cells of SABR-NFAT-GFP-Jurkat cells (TCR 11 Analog 2; technical replicate 1): 17.2%
%GFP+CD69+ cells of SABR-NFAT-GFP-Jurkat cells (TCR 11 Analog 2; technical replicate 2): 16.8%
%GFP+CD69+ cells of SABR-NFAT-GFP-Jurkat cells (TCR 30 Analog 1; replicate 1): 3.25%
%GFP+CD69+ cells of SABR-NFAT-GFP-Jurkat cells (TCR 30 Analog 1; replicate 2): 3.04%
%GFP+CD69+ cells of SABR-NFAT-GFP-Jurkat cells (TCR 30 Analog 1; replicate 3): 3.1%
%GFP+CD69+ cells of SABR-NFAT-GFP-Jurkat cells (TCR 11 Analog 4; technical replicate 1): 0.89%
%GFP+CD69+ cells of SABR-NFAT-GFP-Jurkat cells (TCR 11 Analog 4; technical replicate 2): 0.88%
%GFP+CD69+ cells of SABR-NFAT-GFP-Jurkat cells (TCR 11 Analog 1; technical replicate 1): 0.66%
%GFP+CD69+ cells of SABR-NFAT-GFP-Jurkat cells (TCR 11 Analog 1; technical replicate 2): 0.81%
%GFP+CD69+ cells of SABR-NFAT-GFP-Jurkat cells (TCR 30 Analog 5; replicate 1): 34.3%
%GFP+CD69+ cells of SABR-NFAT-GFP-Jurkat cells (TCR 30 Analog 5; replicate 2): 35.1%
%GFP+CD69+ cells of SABR-NFAT-GFP-Jurkat cells (TCR 30 Analog 5; replicate 3): 34.2%
%GFP+CD69+ cells of SABR-NFAT-GFP-Jurkat cells (TCR 11 Analog 6; technical replicate 1): 1%
%GFP+CD69+ cells of SABR-NFAT-GFP-Jurkat cells (TCR 11 Analog 6; technical replicate 2): 1.08%
%GFP+CD69+ cells of SABR-NFAT-GFP-Jurkat cells (TCR 30 Analog 6; replicate 1): 1.04%
%GFP+CD69+ cells of SABR-NFAT-GFP-Jurkat cells (TCR 30 Analog 6; replicate 2): 1.01%
%GFP+CD69+ cells of SABR-NFAT-GFP-Jurkat cells (TCR 30 Analog 6; replicate 3): 0.97%
%GFP+CD69+ cells of SABR-NFAT-GFP-Jurkat cells (TCR 30 Analog 2; replicate 1): 19.2%
%GFP+CD69+ cells of SABR-NFAT-GFP-Jurkat cells (TCR 30 Analog 2; replicate 2): 19%
%GFP+CD69+ cells of SABR-NFAT-GFP-Jurkat cells (TCR 30 Analog 2; replicate 3): 20%
%GFP+CD69+ cells of SABR-NFAT-GFP-Jurkat cells (TCR 30 Analog 4; replicate 1): 1.2%
%GFP+CD69+ cells of SABR-NFAT-GFP-Jurkat cells (TCR 30 Analog 4; replicate 2): 1.13%
%GFP+CD69+ cells of SABR-NFAT-GFP-Jurkat cells (TCR 30 Analog 4; replicate 3): 1.05%
%GFP+CD69+ cells of SABR-NFAT-GFP-Jurkat cells (TCR 11 Analog 3; technical replicate 1): 0.85%
%GFP+CD69+ cells of SABR-NFAT-GFP-Jurkat cells (TCR 11 Analog 3; technical replicate 2): 1.04%
%GFP+CD69+ cells of SABR-NFAT-GFP-Jurkat cells (TCR 11 Analog 7; technical replicate 1): 0.78%
%GFP+CD69+ cells of SABR-NFAT-GFP-Jurkat cells (TCR 11 Analog 7; technical replicate 2): 1.05%

LQTLALNAARDP
%GFP+CD69+ cells of SABR-NFAT-GFP-Jurkat cells (TCR 4 Analog 1; technical replicate 1): 1.53%
%GFP+CD69+ cells of SABR-NFAT-GFP-Jurkat cells (TCR 4 Analog 1; technical replicate 2): 1.83%
%GFP+CD69+ cells of SABR-NFAT-GFP-Jurkat cells (TCR 4 Analog 2; technical replicate 1): 1%
%GFP+CD69+ cells of SABR-NFAT-GFP-Jurkat cells (TCR 4 Analog 2; technical replicate 2): 0.84%
